In ChEMBL document CHEMBL5727938, “HIV protease inhibitors” (2020):

Assay: MT-4 HIV High Resolution Antiviral Assay: Assay protocol is identical to that described for the MT-4 antiviral assay with the following changes: Each drug is run in 2 series of quadruplicates with different starting concentrations for each series and 19 1.5 fold dilutions performed across the plate. […] Data is analyzed and Hill coefficients determined in Graph Pad Prism (San Diego, Calif.).

EC50 [nM]	Structure (SMILES)
76.7	CC(C)(C)C[C@]1(c2ccc(-c3nncn3C(F)F)cc2F)NC(=N)N([C@H](COC(=O)C2(C(F)(F)F)CC2)c2ccc(Cl)c(-n3ncnc3C(F)F)c2)C1=O
6.81	CC(C)(C)C[C@]1(c2ccc(-c3ncccn3)cc2)NC(=N)N([C@H](COC(=O)NC2(C(F)(F)F)CC2)c2ccc(Cl)c(C3=NC=NC3C(F)F)c2)C1=O (stereo partly drawn)
8.79	CC(C)(C)C[C@]1(c2ccc(-c3cnn(C(F)F)c3)c(F)c2F)NC(=N)N([C@H](COC(=O)NC2(C)CC2)c2ccc(Cl)c(-n3cncn3)c2)C1=O
134	CC(C)(C)C[C@]1(c2ccc(-c3cnn(C(F)F)c3)cc2)NC(=N)N([C@H](COC(=O)NC2(C(F)(F)F)CC2)c2ccc(-n3ncnc3C(F)F)cc2)C1=O
28.1	CC(C)(C)C[C@]1(c2ccc(-c3cnn(C(F)F)c3)cc2)NC(=N)N([C@H](COC(=O)NC2(C(F)(F)F)CC2)c2ccc(Cl)c(-n3ncnc3C(F)F)c2)C1=O
28.1	CC(C)(C)C[C@H]1C(=O)N([C@H](COC(=O)NC2(C(F)(F)F)CC2)c2ccc(F)c(-c3ncnn3C(F)F)c2)C(=N)N1c1ccc(-c2cnn(C(F)F)c2)cc1
18.5	CC(C)(C)C[C@]1(c2ccc(-c3ccn(C4CC4)n3)cc2F)NC(=N)C([C@H](COC(=O)NC2(C(F)(F)F)CC2)c2ccc(Cl)c(-n3ncnc3C(F)F)c2)C1=O (stereo partly drawn)
11.5	CC(C)(C)C[C@]1(c2ccc(-c3ccn(C4CC4)n3)cc2)NC(=N)C([C@H](COC(=O)NC2(C(F)(F)F)CC2)c2ccc(Cl)c(-n3ncnc3C(F)F)c2)C1=O (stereo partly drawn)
7.92	CC(C)(C)C[C@]1(c2ccc(-c3cnn(C4CC4)n3)c(F)c2)NC(=N)N([C@H](COC(=O)NC2(C(F)(F)F)CC2)c2ccc(Cl)c(-c3ncnn3C(F)F)c2)C1=O
12	CC(C)(C)C[C@H]1C(=O)N([C@H](COC(=O)NC(C)(C)C(F)F)c2ccc(Cl)c(-c3ncnn3C(F)F)c2)C(=N)N1c1ccc(-c2ncccn2)cc1
16.5	CC(C)(C)C[C@]1(c2ccc(-c3cnn(C4CC4)n3)cc2)NC(=N)N([C@H](COC(=O)NC2(C(F)(F)F)CC2)c2ccc(Cl)c(-c3ncnn3C(F)F)c2)C1=O
80.4	CC(C)(C)C[C@]1(c2ccc(-c3cnccn3)cc2)NC(=N)C([C@H](COC(=O)NC2(C(F)(F)F)CC2)c2ccc(Cl)c(-c3ncn[nH]3)c2)C1=O (stereo partly drawn)
242	CC(C)(F)C[C@H]1C(=O)N([C@H](COC(=O)NC(C)(C)C(F)F)c2ccc(Cl)c(-c3ncnn3C(F)F)c2)C(=N)N1c1ccc(Br)cc1
